Square brackets hold non-standard residues; d marks the D form. Ends that are not written are not given here. AEEA = NCCOCCOCC(=O)O
Legend:
[1] = Vancomycin loading onto coated titanium bead (HCl elution, HPLC); assay type: binding; conditions: peptide/polymer + vancomycin mixture 30 mins 20° C., PBS washes, 100 mM HCl eluate by HPLC
Description: The experimental procedure used for the embodiments described above was as follows. […] All three components were mixed and then applied to the metal bead. […] All three components were mixed and then applied to the metal bead. […] The mixtures were applied to the metal beads and incubated for 30 mins at 20° C. with 700 rpm shaking. The beads were washed three times with 350 ul PBS. Beads were analyzed as follows: 200 ul of 100 mM HCl was added to each bead and incubated for 30 mins at 20° C. with 1,000 rpm shaking. The eluate from each bead was analyzed by HPLC using Phenomenex Luna 3 um column, 50×4.60 mm. Output was compared to a standard curve for vancomycin to determine the amount of vancomycin retained onto the metal bead.

[2] = test system: Staphylococcus aureus strain MZ100; experiment: Tibia pin assay: coated titanium pins with vancomycin, bacterial cfu count; assay type: cell-based; parameters: key: —: “-” means no cfus; “many” means too many cfus to count, as they converge into one spot; conditions: 3 hours 37° C.
Description: In this assay, titanium pins were used as a model for tibia pins. Briefly, sterile pins were first coated with biofunctional composition (“SEQ ID NO:124-linker-SEQ ID NO:122”) comprising a substrate-binding peptide having binding specificity for vancomycin (“SEQ ID NO:124”) linked to a substrate-binding peptide having binding specificity for metal (“SEQ ID NO:122”), or a composition of the invention formed from compound comprising the biofunctional composition covalently coupled to fatty acid. The respective coatings also include vancomycin bound thereto. The coated pins were then placed in a silicone tube containing liquid bacterial growth medium and inoculated with bacteria. After incubation, the pins were removed, and then the liquid growth medium was serially diluted. The serial dilutions were inoculated onto bacterial culture plates, the plates were incubated, and counted on the plates were bacterial colonies.
In this assay, test samples (biofunctional composition (Table 6, “BC”) or compositions 133, 134, 135, 136 139) each were used to coat a pin by incubating the test sample (in a range of from about 0.8 mM to about 1 mM) with 2.5 μl of a 10 mM vancomycin solution and PBS to a final volume of 250 μl in a microtube (3 pins per tube) for 60 minutes at room temperature with occasional agitation. In a piece of silicone tubing (1.5 mm inner diameter, 50 mm long), added is tryptic soy broth+0.2% glucose, the coated pin, and 10^3 colony forming units (cfu) of Staphylococcus aureus strain MZ100 in either a 20 μl inoculum, 40 μl inoculum, or 60 μl inoculum. The tubing is clamped closed, and the tubing is incubated for 37° C. for 3 hours. After 3 hours, serial dilutions (1:10, 1:100, 1:1000) were made of the culture media from each tubing, and 10 μl of the undiluted culture medium and of each dilution were spotted onto the bacterial culture plate. The bacterial culture plate was incubated overnight at 37° C., and then the cfus were counted. The results, a composite of different assay runs, are shown in Table 6 (“-” means no cfus; “many” means too many cfus to count, as they converge into one spot; “NT” means not tested).

| Substance | Vancomycin Load [1] | cfu 1:10 ([2]; inoculum volume 20 μl) | cfu 1:100 ([2]; inoculum volume 20 μl) | cfu 1:1000 ([2]; inoculum volume 20 μl) | cfu undiluted ([2]; inoculum volume 20 μl) | cfu 1:10 ([2]; inoculum volume 40 μl) [cfu] | cfu 1:100 ([2]; inoculum volume 40 μl) [cfu] | cfu 1:1000 ([2]; inoculum volume 40 μl) | cfu undiluted ([2]; inoculum volume 40 μl) | cfu 1:10 ([2]; inoculum volume 60 μl) [cfu] | cfu 1:100 ([2]; inoculum volume 60 μl) [cfu] | cfu 1:1000 ([2]; inoculum volume 60 μl) | cfu undiluted ([2]; inoculum volume 60 μl) |
| --- | --- | --- | --- | --- | --- | --- | --- | --- | --- | --- | --- | --- | --- |
| SSSCLIDMYGVCHNFDGAYDSSRG-miniPeg-miniPeg-SSHRTNHKKNNPKKKNKTRGSSGK (SSSCLIDMYGVCHNFDGAYDSSRG[AEEA][AEEA]SSHRTNHKKNNPKKKNKTRGSSGK; not fully specified (bridges); printed as SSSCLIDMYGVCHNFDGAYDSSRG-miniPeg-miniPeg-SSHRTNHKKNNPKKKNKTRGSSGK; cysteine pairing not given here) [SEQ ID NO:163] | 54 pmol/cm2 |  |  |  |  |  |  |  |  |  |  |  |  |
| SSSCLIDMYGVCHNFDGAYDSSRG [Compound 134, AUD-AUD-AUD-AUD-SEQ ID NO:124-linker-SEQ ID NO:122] |  | — | — | — | — | 6 | 1 | — | many | 17 | 5 | — | many |
| MA-AHx-SSCLIDIYGVCHN FDAY-miniPeg-miniPeg-YFRAFRKFVKPFKRAFKGSSK(Biotin) [SEQ ID NO:165] | 1,700 pmol/cm2 |  |  |  |  |  |  |  |  |  |  |  |  |

— patent US20090246250A1, “COATING COMPOSITIONS HAVING IMPROVED PERFORMANCE” (priority 2008, published 2009)
